The values that follow come from US11878970B2, “Allosteric chromenone inhibitors of phosphoinositide 3-kinase (PI3K) for the treatment of disease” (Petra Pharma Corporation, priority 2021, dated 2024).

The structures appear in SMILES notation.

In assay [1] the target is T1, PI3K-α (PIK3CA) H1047R mutant, p110α/p85α complex (Homo sapiens, UniProt P42336, H1047R).
T1 construct: Recombinant, catalytically active human full length PIK3KA Wild-type and H1047R mutant; 6×His (N); purchased EMD Millipore Sigma 14-792M
T1 sequence (P42336 whole entry H1047R): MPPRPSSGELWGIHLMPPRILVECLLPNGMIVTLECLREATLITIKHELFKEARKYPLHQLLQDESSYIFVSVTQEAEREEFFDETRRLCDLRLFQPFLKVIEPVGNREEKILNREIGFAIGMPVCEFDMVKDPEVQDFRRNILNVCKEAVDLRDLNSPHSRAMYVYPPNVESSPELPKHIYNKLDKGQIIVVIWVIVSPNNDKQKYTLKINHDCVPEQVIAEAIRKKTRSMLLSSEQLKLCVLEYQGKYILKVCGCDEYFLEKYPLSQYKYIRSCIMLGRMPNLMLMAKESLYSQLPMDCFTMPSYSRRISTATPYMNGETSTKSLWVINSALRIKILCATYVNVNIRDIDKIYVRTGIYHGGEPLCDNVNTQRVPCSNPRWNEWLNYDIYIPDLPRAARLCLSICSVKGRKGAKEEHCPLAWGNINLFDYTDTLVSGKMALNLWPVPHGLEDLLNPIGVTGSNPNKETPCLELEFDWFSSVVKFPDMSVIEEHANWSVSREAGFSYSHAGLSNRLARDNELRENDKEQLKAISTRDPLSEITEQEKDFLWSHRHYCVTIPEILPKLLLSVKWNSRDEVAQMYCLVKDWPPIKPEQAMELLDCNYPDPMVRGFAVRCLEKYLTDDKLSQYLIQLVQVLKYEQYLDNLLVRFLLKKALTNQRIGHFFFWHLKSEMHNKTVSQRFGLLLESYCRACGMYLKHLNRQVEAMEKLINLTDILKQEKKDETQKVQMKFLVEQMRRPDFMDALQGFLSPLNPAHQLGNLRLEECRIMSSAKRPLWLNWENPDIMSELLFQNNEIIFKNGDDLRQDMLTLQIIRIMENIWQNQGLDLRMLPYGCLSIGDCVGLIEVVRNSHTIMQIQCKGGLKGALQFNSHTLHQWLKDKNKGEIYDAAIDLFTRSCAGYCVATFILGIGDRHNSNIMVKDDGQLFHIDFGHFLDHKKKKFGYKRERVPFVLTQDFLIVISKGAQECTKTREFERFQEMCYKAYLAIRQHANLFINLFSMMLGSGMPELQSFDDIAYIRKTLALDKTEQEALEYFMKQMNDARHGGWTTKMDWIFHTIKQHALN
T1 sequence (P27986 whole entry partner): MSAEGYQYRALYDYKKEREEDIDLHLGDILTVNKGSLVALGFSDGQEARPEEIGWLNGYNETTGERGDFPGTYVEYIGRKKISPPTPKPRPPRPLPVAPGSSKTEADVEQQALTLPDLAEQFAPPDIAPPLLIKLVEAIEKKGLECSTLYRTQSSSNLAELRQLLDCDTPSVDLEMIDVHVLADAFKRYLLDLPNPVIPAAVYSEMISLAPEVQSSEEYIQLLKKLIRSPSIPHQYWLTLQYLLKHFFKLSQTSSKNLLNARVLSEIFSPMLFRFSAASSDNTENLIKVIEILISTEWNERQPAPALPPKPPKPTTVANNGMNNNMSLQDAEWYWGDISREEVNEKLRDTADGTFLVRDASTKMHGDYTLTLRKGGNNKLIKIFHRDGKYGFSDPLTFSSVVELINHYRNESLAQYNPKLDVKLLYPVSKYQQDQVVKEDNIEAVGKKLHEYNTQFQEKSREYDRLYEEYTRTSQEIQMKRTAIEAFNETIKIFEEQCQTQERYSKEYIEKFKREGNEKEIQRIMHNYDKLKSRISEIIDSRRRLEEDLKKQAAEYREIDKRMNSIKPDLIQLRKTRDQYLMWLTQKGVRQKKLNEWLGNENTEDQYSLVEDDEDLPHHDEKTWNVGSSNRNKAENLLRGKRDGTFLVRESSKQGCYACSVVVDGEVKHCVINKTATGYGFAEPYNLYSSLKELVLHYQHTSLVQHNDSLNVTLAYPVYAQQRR
The experiment in a line: PI3K-alpha kinase (PIK3CA) biochemical activity, ADP-Glo, H1047R mutant. The following applies: Soy PI lipid substrate. The method, boiled down: (§1)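 ADP formation measured by ADP-Glo luminescence after reaction at 27 °C to about 10% ATP turnover, using 20 uM ATP, 50 uM PIP2diC8 or soy PI lipid, HEPES pH 7.4 with MgCl2. Enzyme (1-5 nM WT or H1047R p110α/p85α) and compound preincubated 1 h first; 10-point 1:3 curves fitted four-parameter for IC50.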

Assay [2] has as its target T2, PI3K-α (PIK3CA) wild-type (WT), p110α/p85α complex (Homo sapiens, UniProt P42336).
T2 construct: Recombinant, catalytically active human full length PIK3KA Wild-type and H1047R mutant; 6×His (N); purchased EMD Millipore Sigma 14-602M
As to the kind of experiment: PI3K-alpha kinase (PIK3CA) biochemical activity, ADP-Glo, wild-type. The following applies: Soy PI lipid substrate. The method, boiled down: as §1

On to `Cc1cc(C(C)Nc2ccccc2C(=O)O)c2oc(-n3ncc4cc(F)ccc43)cc(=O)c2c1` (single isomer, unassigned) [Example 89, 2-[1-[2-(5-Fluoroindazol-1-yl)-6-methyl-4-oxo-chromen-8-yl]ethylamino]benzoic acid], for which the IC50 in assay [1] is less than 500 nM; in assay [2] it was 1000 to 5000 nM.
On to `Cc1cc(C(C)Nc2ccccc2C(=O)O)c2oc(-c3ccc4cn(C)nc4n3)cc(=O)c2c1` (single isomer, unassigned) [Example 135, 2-[1-[6-Methyl-2-(2-methylpyrazolo[3,4-b]pyridin-6-yl)-4-oxo-chromen-8-yl]ethylamino]benzoic acid], for which the IC50 in assay [1] was less than 500 nM; in assay [2] it was 5000 to 10000 nM.
The like results for `Cc1cc(C(C)Nc2ccccc2C(=O)O)c2oc(-c3ccc4ccnn4c3)cc(=O)c2c1` (single isomer, unassigned) [Example 67, 2-[1-(6-Methyl-4-oxo-2-pyrazolo[1,5-a]pyridin-6-yl-chromen-8-yl)ethylamino]benzoic acid] were, in that order, less than 500 nM and 1000 to 5000 nM.
Taken in the same sequence, the figures for `Cc1cc(C(C)Nc2ccccc2C(=O)O)c2oc(-c3ccc4nc(C)cn4n3)c(C)c(=O)c2c1` (single isomer, unassigned) [Example 142, 2-[1-[3,6-Dimethyl-2-(2-methylimidazo[1,2-b]pyridazin-6-yl)-4-oxo-chromen-8-yl]ethylamino]benzoic acid] were less than 500 nM and 1000 to 5000 nM.
Take `Cc1c(-c2cc3ccccc3[nH]2)oc2c(C(C)Nc3ccccc3C(=O)O)cc(F)cc2c1=O` (single isomer, unassigned) [Example 129, 2-[1-[6-Fluoro-2-(1H-indol-2-yl)-3-methyl-4-oxo-chromen-8-yl]ethylamino]benzoic acid]: the IC50 in assay [1] was less than 500 nM; in assay [2], 500 to 1000 nM.
The like results for `Cc1cc(C(C)Nc2ccc(Cl)c(F)c2C(=O)O)c2oc(-c3c(C)nc4ccccn34)cc(=O)c2c1` (single isomer, unassigned) [Example 182, 3-Chloro-2-fluoro-6-[1-[6-methyl-2-(2-methylimidazo[1,2-a]pyridin-3-yl)-4-oxo-chromen-8-yl]ethylamino]benzoic acid] were, in that order, less than 500 nM and 1000 to 5000 nM.
In the case of `Cc1cc(C(C)Nc2ccccc2C(=O)O)c2oc(-c3cn(C)c4ccccc34)cc(=O)c2c1` (single isomer, unassigned) [Example 143, 2-[1-[6-Methyl-2-(1-methylindol-3-yl)-4-oxo-chromen-8-yl]ethylamino]benzoic acid], the results for the IC50 in assay [1] and in assay [2] were less than 500 nM and 500 to 1000 nM, respectively.
Taken in the same sequence, the figures for `Cc1cc(C(C)Nc2ccc(Cl)c(F)c2C(=O)O)c2oc(-c3ccc4nn(C)cc4c3)cc(=O)c2c1` (single isomer, unassigned) [Example 184, 3-Chloro-2-fluoro-6-[1-[6-methyl-2-(2-methylindazol-5-yl)-4-oxo-chromen-8-yl]ethylamino]benzoic acid] were less than 500 nM and 500 to 1000 nM.
`Cc1cc(C(C)Nc2ccccc2C(=O)O)c2oc(-c3cnc4cn(C)nc4c3)cc(=O)c2c1` (single isomer, unassigned) [Example 43, 2-[1-[6-Methyl-2-(2-methylpyrazolo[4,3-b]pyridin-6-yl)-4-oxo-chromen-8-yl]ethylamino]benzoic acid]: the IC50 in assay [1] and in assay [2] was more than 10000 nM in each case.
For `Cc1cc(C(C)Nc2ccccc2C(=O)O)c2oc(-c3cc4ccncc4o3)cc(=O)c2c1` (stereo not drawn) [Example 152, 2-[1-(2-Furo[2,3-c]pyridin-2-yl-6-methyl-4-oxo-chromen-8-yl)ethylamino]benzoic acid], the values for the IC50 in assay [1] and in assay [2] were less than 500 nM and 1000 to 5000 nM, respectively.
The like results for `Cc1cc(C(C)Nc2ccccc2C(=O)O)c2oc(-c3ccc4c(cnn4C)n3)cc(=O)c2c1` (single isomer, unassigned) [Example 53, 2-[1-[6-Methyl-2-(1-methylpyrazolo[4,3-b]pyridin-5-yl)-4-oxo-chromen-8-yl]ethylamino]benzoic acid] were, in that order, less than 500 nM and 1000 to 5000 nM.
Taken in the same sequence, the figures for `Cc1cc(C(C)Nc2ccccc2C(=O)O)c2oc(-c3ccc4cc(C)[nH]c4n3)cc(=O)c2c1` (single isomer, unassigned) [Example 20, 2-[1-[6-Methyl-2-(2-methyl-1H-pyrrolo[2,3-b]pyridin-6-yl)-4-oxo-chromen-8-yl]ethylamino]benzoic acid] were less than 500 nM and 1000 to 5000 nM.
Consider `Cc1cc(C(C)Nc2ccccc2C(=O)O)c2oc(-c3ccc4nc(C)cn4c3)c(C#N)c(=O)c2c1` (single isomer, unassigned) [Example 118, 2-[1-[3-Cyano-6-methyl-2-(2-methylimidazo[1,2-a]pyridin-6-yl)-4-oxo-chromen-8-yl]ethylamino]benzoic acid], for which the 50% inhibitory concentration (IC50) was less than 500 nM in assay [1] and 1000 to 5000 nM in assay [2].
For `Cc1cc(C(C)Nc2ccccc2C(=O)O)c2oc(-c3nn(C)c4ccccc34)c(C)c(=O)c2c1` (single isomer, unassigned) [Example 146, 2-[1-[3,6-Dimethyl-2-(1-methylindazol-3-yl)-4-oxo-chromen-8-yl]ethylamino]benzoic acid], the IC50 in assay [1] was less than 500 nM; in assay [2] it was 500 to 1000 nM.
In the case of `Cc1cc(C(C)Nc2cccc(F)c2C(=O)O)c2oc(-c3ccc4nn(C)cc4c3)cc(=O)c2c1` (single isomer, unassigned) [Example 172, 2-Fluoro-6-[1-[6-methyl-2-(2-methylindazol-5-yl)-4-oxo-chromen-8-yl]ethylamino]benzoic acid], the IC50 in assay [1] and in assay [2] was less than 500 nM each time.
Turning to `Cc1cc(C(C)Nc2ccccc2C(=O)O)c2oc(-c3cnc4nn(C)cc4c3)cc(=O)c2c1` (single isomer, unassigned) [Example 42, 2-[1-[6-Methyl-2-(2-methylpyrazolo[3,4-b]pyridin-5-yl)-4-oxo-chromen-8-yl]ethylamino]benzoic acid], the IC50 is less than 500 nM in assay [1] and 1000 to 5000 nM in assay [2].
Taken in the same sequence, the figures for `Cc1cn2cc(-c3oc4c(C(C)Nc5ccccc5C(=O)O)cc(F)cc4c(=O)c3C)ccc2n1` (single isomer, unassigned) [Example 56, 2-[1-[6-Fluoro-3-methyl-2-(2-methylimidazo[1,2-a]pyridin-6-yl)-4-oxo-chromen-8-yl]ethylamino]benzoic acid] were more than 10000 nM and more than 10000 nM.
Consider `COc1ccc2nc(-c3cc(=O)c4cc(C)cc(C(C)Nc5ccccc5C(=O)O)c4o3)cn2c1` (single isomer, unassigned) [Example 2, 2-[1-[2-(6-Methoxyimidazo[1,2-a]pyridin-2-yl)-6-methyl-4-oxo-chromen-8-yl]ethylamino]benzoic acid], for which the concentration for half-maximal inhibition (IC50) in assay [1] lay in the range of 500 to 1000 nM; in assay [2] it was 1000 to 5000 nM.
The like results for `Cc1cc(C(C)Nc2ccccc2C(=O)O)c2oc(-c3ccc4c(c3)CC(=O)N4C)cc(=O)c2c1` (single isomer, unassigned) [Example 62, 2-[1-[6-Methyl-2-(1-methyl-2-oxo-indolin-5-yl)-4-oxo-chromen-8-yl]ethylamino]benzoic acid] were, in that order, less than 500 nM and 1000 to 5000 nM.
Consider `Cc1cc(C(C)Nc2ccccc2C(=O)O)c2oc(-c3nccc4cn(C)nc34)cc(=O)c2c1` (single isomer, unassigned) [Example 98, 2-[1-[6-Methyl-2-(2-methylpyrazolo[3,4-c]pyridin-7-yl)-4-oxo-chromen-8-yl]ethylamino]benzoic acid], for which the IC50 in assay [1] and in assay [2] was 5000 to 10000 nM in each case.
Turning to `Cc1cc(C(C)Nc2ccccc2C(=O)O)c2oc(-c3ccc4ccnn4c3)c(C)c(=O)c2c1` (single isomer, unassigned) [Example 157, 2-[1-(3,6-Dimethyl-4-oxo-2-pyrazolo[1,5-a]pyridin-6-yl-chromen-8-yl)ethylamino]benzoic acid], the results for the IC50 in assay [1] and in assay [2] were less than 500 nM and 1000 to 5000 nM, respectively.
